Experimental data: paper PMC2763920 (Electrophoresis, 2009)

Experiments:
GST-Fyn-SH3-SH2 [1] = assay: High-speed CE competition / binding, GST-Fyn-SH3-SH2 with Fluor-Fyn peptide
Fyn-SH3-SH2 = conditions: 100 V/cm for Ld of 30 cm; 100 and 200 V/cm for Ld of 40 cm; t1/2 not measured
GST-Fyn-SH3-SH2 [2] = assay: NECEEM, GST-Fyn-SH3-SH2:Fluor-Fyn peptide complex; format: binding; conditions: 2 μM GST-Fyn-SH3-SH2, 100 nM Fluor-Fyn peptide, pH 8.5

Substance: fluorescein-EEEEPQpYEEIPIYL [Fluor-Fyn peptide]
- number of complexes detected (high-speed CE), GST-Fyn-SH2-SH3 (GST-Fyn-SH3-SH2 [1]; 500 nM protein, 200 nM Fluor-Fyn peptide): two distinct complexes were detected
- complex 1-to-complex 2 ratio with increasing peptide concentration (GST-Fyn-SH3-SH2 [1]; Fluor-Fyn peptide 50 nM to 700 nM, protein 500 nM): decreases with increasing peptide concentration
- protein concentration dependency of complex formation: low range (GST-Fyn-SH3-SH2 [1]; GST-Fyn-SH3-SH2 0.1 μM to 0.5 μM, Fluor-Fyn peptide 200 nM): complex 2 increases
- complex expected to dissociate over the course of separation (GST-Fyn-SH3-SH2 [1]; for t1/2 of 22 s and separation time of 3.8 s): 2%
- dissociation of the complex at low electric field (NECEEM) (Fyn-SH3-SH2): complete dissociation of the complex
- complexes observed (NECEEM) (GST-Fyn-SH3-SH2 [2]): two incompletely resolved peaks
